Patent US11084795B2, “CFTR regulators and methods of use thereof” (The Regents of the University of California, priority 2015, dated 2021)
“Also recorded” adds a separate entry of the source. Read-outs that look alike come from different tables or passages of the source.

Legend:
[1] = target: human wildtype CFTR (Homo sapiens, UniProt P13569); experiment: Fluorescence plate reader assay of iodide influx in FRT cells co-expressing CFTR and YFP halide sensor; settings: synthesized compounds, full dose-response study; 125 nM forskolin
Chain of human wildtype CFTR (P13569 whole entry): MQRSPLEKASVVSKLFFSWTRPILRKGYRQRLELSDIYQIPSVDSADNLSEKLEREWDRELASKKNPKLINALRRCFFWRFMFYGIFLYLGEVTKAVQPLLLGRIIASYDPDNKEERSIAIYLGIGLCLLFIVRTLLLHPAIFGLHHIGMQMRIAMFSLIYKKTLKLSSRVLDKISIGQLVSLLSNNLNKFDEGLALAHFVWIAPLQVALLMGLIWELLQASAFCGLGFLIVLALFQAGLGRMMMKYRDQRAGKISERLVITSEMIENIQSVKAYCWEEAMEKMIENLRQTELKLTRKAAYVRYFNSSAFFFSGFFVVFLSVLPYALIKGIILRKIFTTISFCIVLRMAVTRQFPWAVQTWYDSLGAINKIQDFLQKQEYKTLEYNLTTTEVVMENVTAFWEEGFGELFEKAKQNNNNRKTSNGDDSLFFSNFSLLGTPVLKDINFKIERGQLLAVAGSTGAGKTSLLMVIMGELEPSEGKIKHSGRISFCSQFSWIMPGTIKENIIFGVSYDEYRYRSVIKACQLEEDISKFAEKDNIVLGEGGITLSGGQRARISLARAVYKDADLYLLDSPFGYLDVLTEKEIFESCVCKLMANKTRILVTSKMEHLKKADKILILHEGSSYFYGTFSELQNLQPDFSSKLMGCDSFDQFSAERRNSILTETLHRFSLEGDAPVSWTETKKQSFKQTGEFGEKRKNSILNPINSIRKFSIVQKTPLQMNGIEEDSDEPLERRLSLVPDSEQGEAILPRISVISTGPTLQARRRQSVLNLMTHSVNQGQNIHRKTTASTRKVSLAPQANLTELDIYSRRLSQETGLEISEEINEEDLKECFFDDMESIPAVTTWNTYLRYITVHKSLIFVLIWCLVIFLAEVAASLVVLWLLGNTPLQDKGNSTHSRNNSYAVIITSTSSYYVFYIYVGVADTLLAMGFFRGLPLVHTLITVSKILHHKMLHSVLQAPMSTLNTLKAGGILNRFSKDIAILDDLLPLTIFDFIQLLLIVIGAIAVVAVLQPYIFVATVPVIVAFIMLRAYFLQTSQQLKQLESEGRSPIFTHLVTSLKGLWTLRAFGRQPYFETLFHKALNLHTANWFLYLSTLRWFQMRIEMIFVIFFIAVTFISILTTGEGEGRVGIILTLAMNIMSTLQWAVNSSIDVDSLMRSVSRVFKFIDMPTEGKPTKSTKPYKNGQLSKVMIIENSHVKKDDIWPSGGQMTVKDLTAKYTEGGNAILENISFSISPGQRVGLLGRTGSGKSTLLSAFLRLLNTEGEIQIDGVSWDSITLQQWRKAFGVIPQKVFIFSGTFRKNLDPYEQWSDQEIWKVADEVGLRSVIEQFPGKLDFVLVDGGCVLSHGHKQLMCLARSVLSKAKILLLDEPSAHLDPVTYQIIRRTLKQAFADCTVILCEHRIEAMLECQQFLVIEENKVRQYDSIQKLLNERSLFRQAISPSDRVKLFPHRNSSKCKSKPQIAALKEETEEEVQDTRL

[2] = system: loperamide-treated mice; experiment: Loperamide-induced mouse model of constipation; settings: for ED50: Mus musculus
[3] = system: cellular cAMP; experiment: GloSensor cAMP assay in FRT cells; assay type: cell-based, rat; settings: 5 μM compound, 10 min, without or with 100 nM forskolin
Description: Intracellular cAMP activity was measured using a GloSensor luminescence assay (Promega Corp., Madison, Wisconson, USA). FRT null cells were stably transfected with the pGloSensor cAMP plasmid and plated onto white 96-well microplates and grown to confluence. Cells were washed three times with PBS and incubated with 5 μM CFTRact-J027 for 10 min in the absence and presence of 100 nM forskolin. cAMP was assayed according to the manufacturer's instructions.
Intracellular cAMP activity was measured using a GloSensor luminescence assay (Promega Corp., Madison, Wis., USA). FRT cells stably transfected with the pGloSensor cAMP plasmid (Promega Corp.) were cultured in white 96-well microplates (Corning Costar) overnight. Cells were then washed three times with PBS and incubated with 5 μM test compound for 10 min in the absence and presence of 100 nM forskolin.
cAMP assay. Intracellular cAMP activity was measured using a GloSensor luminescence assay (Promega Corp., Madison, Wisconson, USA). FRT null cells were stably transfected with the pGloSensor cAMP plasmid and plated onto white 96-well microplates and grown to confluence. […]
cAMP and cytotoxicity assays. Intracellular cAMP activity was measured using a GloSensor luminescence assay (Promega Corp., Madison, Wis., USA). […]

[4] = system: whole-gut transit; experiment: Whole-gut transit time in mice; assay type: in vivo, mouse
Description: Whole-gut transit time was determined using an orally administered marker (200 μL, 5% Evans Blue, 5% gum Arabic) and measuring the time of its appearance in stool. Mice were administered loperamide and CFTRact-J027 (10 mg/kg) or vehicle intraperitoneally at zero time. For ex vivo contractility measurements, mice were euthanized by avertin overdose (200 mg/kg, 2,2,2-tribromethanol, Sigma-Aldrich) and ileum and colon segments of ˜2 cm length were isolated and washed with Krebs-Henseleit buffer. The ends of the intestinal segments were tied, connected to a force transducer (Biopac Systems, Goleta, Calif., USA) and tissues were transferred to an organ chamber (Biopac Systems) containing Krebs-Henseleit buffer at 37° C. aerated with 95% O2, 5% CO2. Ileum and colon were stabilized for 60 min with resting tensions of 0.5 and 0.2 g respectively, and solutions were changed every 15 min. Effects of CFTRact-J027 on baseline and loperamide-suppressed isometric intestinal contractions were recorded.
In vivo intestinal transit and ex vivo intestinal contractility. Whole-gut transit time was determined using an orally administered marker (200 μL, 5% Evans Blue, 5% gum Arabic) and measuring the time of its appearance in stool. […] Effects of CFTRact-J027 on baseline and loperamide-suppressed isometric intestinal contractions were recorded.

[5] = system: scopolamine-treated mice; experiment: Scopolamine-induced mouse model of acute constipation; assay type: in vivo
Description: Control mice were treated with vehicle only.

[6] = system: FRT cells; experiment: Alamar Blue cytotoxicity assay in FRT cells; assay type: cell-based, rat
[7] = system: intestinal fluid absorption; experiment: Closed mid-jejunal loop model of intestinal fluid absorption in cystic fibrosis mice; assay type: in vivo, mouse; settings: 30 min
Description: Mice (wildtype or CF) were given access to 5% dextrose water but not solid food for 24 h before experiments. Mice were anesthetized with isoflurane and body temperature was maintained during surgery at 36-38° C. using a heating pad. A small abdominal incision was made to expose the small intestine, and closed mid-jejunal loops (length 2-3 cm) were isolated by sutures. Loops were injected with 100 μL vehicle alone or 100 μg CFTRact-J027 in vehicle. The abdominal incision was closed with sutures, and mice were allowed to recover from anesthesia. Intestinal loops were removed at 90 min and loop length and weight were measured to quantify fluid secretion. Intestinal absorption was measured in CF mice (to prevent secretion) as described above, except that the loops were removed at 0 or 30 min. Absorption was calculated as 1−(loop weight at 0 min−loop weight at 30 min)/loop weight at 0 min.
In vivo intestinal secretion and absorption. Mice (wildtype or CF) were given access to 5% dextrose water but not solid food for 24 h before experiments. […] Intestinal loops were removed at 90 min and loop length and weight were measured to quantify fluid secretion. Intestinal absorption was measured in CF mice (to prevent secretion) as described above, except that the loops were removed at 0 or 30 min. Absorption was calculated as 1−(loop weight at 0 min−loop weight at 30 min)/loop weight at 0 min.

Nc1ccc([N+](=O)[O-])cc1-c1nc2ccccc2n(Cc2ccccc2)c1=O [CFTRact-J027, 3-(2-amino-5-nitrophenyl)-1-benzylquinoxalin-2(1H)-one]
EC50 [1]: 0.2 µM
stool weight, pellet number and water content ([2]; 10 mg/kg ip, loperamide-treated mice, 3 h stool): normalized each of the stool parameters
stool output and water content, oral ([2]; 10 mg/kg oral 1 h prior to loperamide): normalized stool output and water content; also recorded: effective in normalizing stool output and water content
stool output and water content after chronic administration ([2]; 10 mg/kg oral for 7 days, loperamide 1 h after final dose): remained effective in normalizing stool output and water content
stool output in control mice, oral ([2]; 10 mg/kg oral, control mice): no effect in control mice
ED50 ([2]; ip, read-out: ED50, ip administration, loperamide model, ip): 2 mg/kg
ED50 ([2]; po, read-out: ED50, oral administration, loperamide model, oral 1 h before loperamide): ~0.5 mg/kg
effect on stool parameters in cystic fibrosis mice ([2]; cystic fibrosis mice lacking functional CFTR): without effect
stool output and water content in control mice ([2]; ip, non-loperamide-treated mice): did not affect stool output or water content
duration of effect ([2]; mice): 3 to 4 h
effect on cellular cAMP [3]: without causing elevation of cytoplasmic cAMP; also recorded: does not elevate cellular cAMP
whole-gut transit time in cystic fibrosis mice ([4]; cystic fibrosis mice): no effect on whole-gut transit time
whole-gut transit time ([4]; loperamide-treated wild-type mice, 10 mg/kg ip): normalized
efficacy, ip after development of constipation ([5]; 10 mg/kg ip 1 h after loperamide or scopolamine): effective
stool parameters, oral 1 h prior to scopolamine ([5]; 10 mg/kg po): normalization of stool parameters
efficacy, oral after development of constipation ([5]; 10 mg/kg po 1 h after loperamide or scopolamine): not effective
stool output, pellet number and water content compared to lubiprostone and linaclotide ([5]; J027 10 mg/kg vs 0.5 mg/kg comparators, oral): more effective in increasing stool output, pellet number and water content
cytotoxicity (Alamar Blue) ([6]; 20 μM): did not show cytotoxicity
in vitro cytotoxicity ([6]; 25 μM): did not show significant in vitro cytotoxicity
non-cytotoxic concentration relative to EC50 for CFTR activation ([6]; 25 μM): > 100 fold
in vitro cytotoxicity ([6]; up to 100 μM, 1 or 24 h): no appreciable in vitro cytotoxicity
intestinal fluid absorption [7]: did not affect intestinal fluid absorption
